The text below walks through data of US11292801B2, “Calpain modulators and therapeutic uses thereof” (Blade Therapeutics, Inc., priority 2016, dated 2022).

The target in one experiment is T1, Human Calpain 2/NS1 (Homo sapiens, UniProt P17655).
T1 sequence (P17655 1-700): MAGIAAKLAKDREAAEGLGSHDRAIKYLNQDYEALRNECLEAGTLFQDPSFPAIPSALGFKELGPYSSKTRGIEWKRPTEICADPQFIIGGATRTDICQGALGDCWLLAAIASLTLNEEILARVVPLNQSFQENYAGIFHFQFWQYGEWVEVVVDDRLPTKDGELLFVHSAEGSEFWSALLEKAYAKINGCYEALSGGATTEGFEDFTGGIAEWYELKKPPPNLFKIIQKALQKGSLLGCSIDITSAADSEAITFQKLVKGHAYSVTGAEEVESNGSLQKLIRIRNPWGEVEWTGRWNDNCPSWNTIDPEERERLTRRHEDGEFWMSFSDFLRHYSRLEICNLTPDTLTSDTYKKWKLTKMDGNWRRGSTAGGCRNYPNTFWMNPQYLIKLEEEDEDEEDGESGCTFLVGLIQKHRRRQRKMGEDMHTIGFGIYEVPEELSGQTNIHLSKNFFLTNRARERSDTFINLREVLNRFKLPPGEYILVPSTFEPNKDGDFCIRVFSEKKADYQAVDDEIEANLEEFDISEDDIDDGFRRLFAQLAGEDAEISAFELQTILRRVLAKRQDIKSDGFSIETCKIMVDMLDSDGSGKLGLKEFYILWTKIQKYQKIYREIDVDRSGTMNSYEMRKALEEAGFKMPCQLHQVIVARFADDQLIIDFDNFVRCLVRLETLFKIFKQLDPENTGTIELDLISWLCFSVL
T1 sequence (P04632 1-268 partner): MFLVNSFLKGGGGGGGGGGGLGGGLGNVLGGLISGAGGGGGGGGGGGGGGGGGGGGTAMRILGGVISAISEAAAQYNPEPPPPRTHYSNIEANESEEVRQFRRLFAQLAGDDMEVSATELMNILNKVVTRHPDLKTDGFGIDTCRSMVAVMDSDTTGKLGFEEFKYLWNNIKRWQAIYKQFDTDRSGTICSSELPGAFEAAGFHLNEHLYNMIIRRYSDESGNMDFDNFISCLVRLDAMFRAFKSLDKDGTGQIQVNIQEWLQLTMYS
The experiment in a line: Biochemical inhibition of calpain 2, continuous fluorescence (FRET substrate) assay. The settings on record: mean, read-out: Human Calpain 2/NS1 IC50 (nM)_MEAN. In a few lines: (§1)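 IC50 values come from 4-parameter fits of progress-curve rates (1-5 min slopes) against log inhibitor concentration. Calpain and inhibitor premixed at ambient 25C in Tris pH ~7.5/NaCl/DTT buffer, then CaCl2 and FRET substrate added to activate; 5-FAM fluorescence (ex 490/em 520) followed 10 min.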

The target in another experiment is T2, Human Calpain 9/NS1 (Homo sapiens, UniProt O14815).
T2 sequence (O14815 1-690): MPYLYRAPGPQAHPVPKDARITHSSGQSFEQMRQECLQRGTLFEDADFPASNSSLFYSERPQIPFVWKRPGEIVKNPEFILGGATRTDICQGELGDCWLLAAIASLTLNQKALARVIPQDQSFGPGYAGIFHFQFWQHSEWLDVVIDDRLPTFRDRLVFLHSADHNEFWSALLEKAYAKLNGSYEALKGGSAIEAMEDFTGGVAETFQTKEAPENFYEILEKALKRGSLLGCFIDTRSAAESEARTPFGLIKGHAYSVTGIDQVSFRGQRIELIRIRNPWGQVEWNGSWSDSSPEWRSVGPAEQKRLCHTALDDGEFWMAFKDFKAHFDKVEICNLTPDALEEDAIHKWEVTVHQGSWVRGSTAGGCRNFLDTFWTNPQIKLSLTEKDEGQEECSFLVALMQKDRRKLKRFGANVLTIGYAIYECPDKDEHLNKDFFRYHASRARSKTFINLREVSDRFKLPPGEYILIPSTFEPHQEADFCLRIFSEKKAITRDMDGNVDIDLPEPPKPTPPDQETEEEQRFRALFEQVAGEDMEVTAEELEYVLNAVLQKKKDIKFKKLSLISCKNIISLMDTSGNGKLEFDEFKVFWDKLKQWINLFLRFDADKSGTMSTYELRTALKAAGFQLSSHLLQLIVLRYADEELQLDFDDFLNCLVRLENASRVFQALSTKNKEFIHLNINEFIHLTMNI
T2 sequence (P04632 1-268 partner): T1 sequence (P04632 1-268 partner)
The experiment in a line: Biochemical inhibition of calpain 9, continuous fluorescence (FRET substrate) assay. The settings on record: mean, read-out: Human Calpain 9/NS1 IC50 (nM)_MEAN. The method, boiled down:
as §1

The target in the next experiment is T3, Human Calpain 1/NS1 (Homo sapiens, UniProt P07384).
T3 sequence (P07384 1-714): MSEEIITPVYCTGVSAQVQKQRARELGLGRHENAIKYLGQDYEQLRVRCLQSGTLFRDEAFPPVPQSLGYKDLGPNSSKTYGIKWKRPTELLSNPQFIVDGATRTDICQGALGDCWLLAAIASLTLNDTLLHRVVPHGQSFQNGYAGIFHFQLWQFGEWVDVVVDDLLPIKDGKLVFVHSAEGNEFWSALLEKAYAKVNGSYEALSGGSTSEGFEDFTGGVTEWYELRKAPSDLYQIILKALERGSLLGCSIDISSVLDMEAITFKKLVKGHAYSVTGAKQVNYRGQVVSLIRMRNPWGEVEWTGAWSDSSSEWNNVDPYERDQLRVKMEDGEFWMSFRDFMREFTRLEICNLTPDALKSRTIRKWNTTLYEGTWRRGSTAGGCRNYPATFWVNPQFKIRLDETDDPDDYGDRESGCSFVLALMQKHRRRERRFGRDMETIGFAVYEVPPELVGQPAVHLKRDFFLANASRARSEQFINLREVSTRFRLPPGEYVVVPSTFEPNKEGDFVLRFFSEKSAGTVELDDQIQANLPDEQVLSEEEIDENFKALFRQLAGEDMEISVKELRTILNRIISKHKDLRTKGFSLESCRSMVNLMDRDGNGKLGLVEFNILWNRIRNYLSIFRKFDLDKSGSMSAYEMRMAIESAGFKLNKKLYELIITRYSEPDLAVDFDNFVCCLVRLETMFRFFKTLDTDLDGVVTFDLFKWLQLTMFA
T3 sequence (P04632 1-268 partner): T1 sequence (P04632 1-268 partner)
Nature of the experiment: Biochemical inhibition of calpain 1, continuous fluorescence (FRET substrate) assay. The settings on record: mean, read-out: Human Calpain 1/NS1 IC50 (nM)_MEAN. The method, boiled down: as §1

Bounds are passed on as bounds.

Consider `CC(C)CCNC(=O)C(=O)C1CCCCOCCOCc2ccccc2C(=O)N1` (stereo not drawn) [Compound 90, N-isopentyl-2-oxo-2-(12-oxo-1,3,4,6,7,8,9,10,11,12-decahydrobenzo[f][1,4]dioxa[9]azacyclotetradecin-10-yl)acetamide], for which the results for the IC50 at Human Calpain 2/NS1, on Human Calpain 9/NS1 and at Human Calpain 1/NS1 were 3000 to 10000 nM, under 3000 nM and over 10000 nM, respectively.
Turning to `O=C[C@@H]1CC=CCCCCCc2ccccc2C(=O)N1` [Compound 14, (S)-1-Oxo-2,3,4,7,8,9,10,11-octahydro-1h-benzo[c][1]aza-cyclotridecine-3-carbaldehyde], the IC50 on Human Calpain 2/NS1 is under 3000 nM; on Human Calpain 9/NS1 it was under 3000 nM; at Human Calpain 1/NS1, 3000 to 10000 nM.
Turning to `O=C[C@@H]1CCCCOCCn2ccc3cccc(c32)C(=O)N1` [Compound 8, (S)-11-Oxo-2,3,4,5,8,9,10,11-octahydrobenzo[b][1]oxa[5]azacyclotridecine-9-carbaldehyde], the results for the IC50 on Human Calpain 2/NS1, on Human Calpain 9/NS1 and at Human Calpain 1/NS1 were under 3000 nM, under 3000 nM and 3000 to 10000 nM, respectively.
Consider `O=C(NCc1cccc(F)c1)C(=O)C1CCCCOCCOCc2ccccc2C(=O)N1` (stereo not drawn) [Compound 106, N-(3-fluorobenzyl)-2-oxo-2-(12-oxo-1,3,4,6,7,8,9,10,11,12-decahydrobenzo[f][1,4]dioxa[9]azacyclotetradecin-10-yl)acetamide], for which the IC50 was 3000 to 10000 nM on Human Calpain 2/NS1, under 3000 nM on Human Calpain 9/NS1 and over 10000 nM at Human Calpain 1/NS1.
As to `O=C(NCc1cccc(OC(F)(F)F)c1)C(=O)C1CCCCOCCOCc2ccccc2C(=O)N1` (stereo not drawn) [Compound 120, 2-Oxo-2-(12-oxo-1,3,4,6,7,8,9,10,11,12-decahydrobenzo[f][1,4]dioxa[9]aza-cyclotetradecin-10-yl)-N-(3-(trifluoromethoxy)benzyl)acetamide], the IC50 at Human Calpain 2/NS1 was over 10000 nM; at Human Calpain 9/NS1 it was under 3000 nM; on Human Calpain 1/NS1, over 10000 nM.
Consider `CS(=O)(=O)c1cccc(CNC(=O)C(=O)C2CCCCOCCOCc3ccccc3C(=O)N2)c1` (stereo not drawn) [Compound 118, N-(3-(methylsulfonyl)benzyl)-2-oxo-2-(12-oxo-1,3,4,6,7,8,9,10,11,12-decahydrobenzo[f][1,4]dioxa[9]azacyclotetradecin-10-yl)acetamide], for which the IC50 on Human Calpain 2/NS1 is over 10000 nM; on Human Calpain 9/NS1, under 3000 nM; on Human Calpain 1/NS1, over 10000 nM.
Regarding `O=C[C@@H]1CCCCOCCOc2ccccc2C(=O)N1` [Compound 19, (S)-11-Oxo-2,3,6,7,8,9,10,11-octahydro-5h-benzo[e][1,4]dioxa[8]azacyclotridecine-9-carbaldehyde], the IC50 was 3000 to 10000 nM at Human Calpain 2/NS1, 3000 to 10000 nM at Human Calpain 9/NS1 and over 10000 nM on Human Calpain 1/NS1.
For the compound `CC(C)NC(=O)C(=O)[C@@H]1C/C=C/COCCOCc2ccccc2C(=O)N1` [Compound 62, (S,E)-N-isopropyl-2-oxo-2-(12-oxo-1,3,4,6,9,10,11,12-octahydrobenzo[f][1,4]dioxa[9]azacyclotetradecin-10-yl)acetamide], the IC50 at Human Calpain 2/NS1, on Human Calpain 9/NS1 and at Human Calpain 1/NS1 was over 10000 nM throughout.
As to `O=C[C@@H]1C/C=C/CCCOc2ccccc2C(=O)N1` [Compound 21, (S)-10-Oxo-3,4,7,8,9,10-hexahydro-2h-benzo[b][1]oxa[5]aza-cyclododecine-8-carbaldehyde], the IC50 was 3000 to 10000 nM at Human Calpain 2/NS1, 3000 to 10000 nM at Human Calpain 9/NS1 and over 10000 nM on Human Calpain 1/NS1.
For `NC(=O)C(=O)[C@@H]1CCCCCOc2ccnc(n2)-c2ccccc2C(=O)N1` [Compound 129, (S)-2-oxo-2-(3-oxo-11-oxa-4-aza-1(2,4)-pyrimidina-2(1,2)-benzena-cycloundecaphane-5-yl)acetamide], the IC50 on Human Calpain 2/NS1, on Human Calpain 9/NS1 and on Human Calpain 1/NS1 was under 3000 nM in each case.
Consider `CC(C)(NC(=O)C(=O)C1CCCCOCCOCc2ccccc2C(=O)N1)c1cccnc1` (stereo not drawn) [Compound 124, 2-Oxo-2-(12-oxo-1,3,4,6,7,8,9,10,11,12-decahydrobenzo[f][1,4]dioxa[9]azacyclotetradecin-10-yl)-N-(2-(pyridin-3-yl)propan-2-yl)acetamide], for which the IC50 on Human Calpain 2/NS1, on Human Calpain 9/NS1 and on Human Calpain 1/NS1 was over 10000 nM in each case.
On to `O=C(NCc1ccc2c(c1)OCO2)C(=O)C1CCCCOCCOCc2ccccc2C(=O)N1` (stereo not drawn) [Compound 81, N-(benzo[d][1,3]dioxol-5-ylmethyl)-2-oxo-2-(12-oxo-1,3,4,6,7,8,9,10,11,12-decahydrobenzo[f][1,4]dioxa[9]azacyclotetradecin-10-yl)acetamide], for which the IC50 on Human Calpain 2/NS1 is 3000 to 10000 nM; on Human Calpain 9/NS1 it was under 3000 nM; at Human Calpain 1/NS1, over 10000 nM.
The corresponding values for `CCCCNC(=O)C(=O)[C@@H]1CCCCOCCOCc2ccccc2C(=O)N1` [Compound 53, (S)—N-butyl-2-oxo-2-(12-oxo-1,3,4,6,7,8,9,10,11,12-decahydrobenzo[f][1,4]dioxa[9]azacyclotetradecin-10-yl)acetamide] are over 10000 nM, under 3000 nM and over 10000 nM.
The matching figures for `O=C(NC1CC1)C(=O)[C@@H]1Cc2ccc(cc2)OC/C=C/COc2cccc(c2)-c2ccn(n2)-c2ncccc2C(=O)N1` [Compound 70, N-cyclopropyl-2-oxo-2-((2^2E,6S,11E)-4-oxo-2^1H-9,14-dioxa-5-aza-3(2,3)-pyridina-2(3,1)-pyrazola-1(1,3),8(1,4)-dibenzenacyclotetradecaphan-11-en-6-yl)acetamide]: under 3000 nM, under 3000 nM and under 3000 nM.
In the case of `CCNC(=O)C(=O)[C@@H]1C/C=C/CCCCCCCc2ccccc2C(=O)N1` [Compound 33, (S,E)-N-ethyl-2-oxo-2-(1-oxo-2,3,4,7,8,9,10,11,12,13-decahydro-1h-benzo[c][1]azacyclopentadecin-3-yl)acetamide], the IC50 on Human Calpain 2/NS1, on Human Calpain 9/NS1 and at Human Calpain 1/NS1 was over 10000 nM each time.
For `CN1CCN(CCCNC(=O)C(=O)C2CCCCOCCOCc3ccccc3C(=O)N2)CC1` (stereo not drawn) [Compound 105, N-(3-(4-methylpiperazin-1-yl)propyl)-2-oxo-2-(12-oxo-1,3,4,6,7,8,9,10,11,12-decahydrobenzo[f][1,4]dioxa[9]azacyclotetradecin-10-yl)acetamide], the IC50 is over 10000 nM at Human Calpain 2/NS1, under 3000 nM on Human Calpain 9/NS1 and over 10000 nM at Human Calpain 1/NS1.
